The values that follow come from patent publication US8883833B2, “Substituted benzoazole PDE4 inhibitors for treating inflammatory, cardiovascular and CNS disorders” (Decode Genetics EHF, priority 2007, dated 2014).

The target in assay [1] is human PDE4B isozyme (Homo sapiens, UniProt Q07343). The assay is described as follows: IC50 for human PDE4B isozyme (Table 5). It counts as biochemical. The note with it: read-out: IC50 for human PDE4B isozyme, hPDE4B. As for the experimental part:
(§1) In-vitro assay for PDE4 enzymes. The in-vitro activity of PDE4 enzymes and the in-vitro potency of therapeutic agents described in the present invention was measured using a real-time, enzyme-coupled spectrophotometric assay. By using three different coupling enzymes, the product of the PDE4 reaction is coupled to the oxidation of the reduced form β-nicotinamide adenine dinucleotide (NADH), which dissipation can be monitored spectrophotmetrically at […]. Assay description. Buffer A containing 50 mM Tris, pH 8.0, 16 mM MgCl2 and 80 mM KCl is prepared and stored at room temperature. Buffer B containing 50 mM Tris, pH 8.0 is prepared and stored at toom temperature. Stock solutions of the following reagents are prepared in Buffer B and stored at −20° C.: Adenosine-5′-triphosphate (ATP), cyclic adenosine-5′-monophosphate (cAMP), phosphoenolpyruvate (PEP) and NADH. An assay mix is prepared by mixing Buffer A, […] (TCEP), ATP, PEP, NADH, myokinase (MK), pyruvate kinase (PK), lactate dehydroganese (LDH) and PDE4 to a final volume of 20 mL, which is enough for a single 96-well assay plate. Assay mix (180 μL) and test article (10 μL) in 1:1 DMSO/H2O mixture is pre-incubated at room temperature for 10 min. The enzymatic reaction is initiated by addition of cAMP (10 μL). Final concentration of all components in the assay (200 μL/well) are as follows: 10 mM MgCl2, 50 mM KCl, 5 mM TCEP, 2.5% DMSO, 0.4 mM NADH, 1 mM PEP, 0.04 mM ATP, 5 units MK, 1 unit PK, 1 unit LDH and appropriate amount of PDE4. Reaction progress curves are monitored in a plate reader capable of measuring light absorbance at 340 nm. A decrease in light absorbance at 340 nm is due to oxidation of NADH. Positive controls containing no test article and negative controls containing no test article and no cAMP are included on every assay plate. Reaction rates are determined from the slopes of the linear portions of the progress curves. All data is percent normalized with respect to controls and presented as percent inhibition.

In assay [2] the target is human PDE4D isozyme (Homo sapiens, UniProt Q08499). Description: IC50 for human PDE4D isozyme (Table 4). It counts as biochemical. The conditions noted are these: read-out: IC50 for human PDE4D isozyme, hPDE4D. On the procedure:
as §1

Molecules are shown by their SMILES.

human PDE4D isozyme, sequence (Q08499 whole entry): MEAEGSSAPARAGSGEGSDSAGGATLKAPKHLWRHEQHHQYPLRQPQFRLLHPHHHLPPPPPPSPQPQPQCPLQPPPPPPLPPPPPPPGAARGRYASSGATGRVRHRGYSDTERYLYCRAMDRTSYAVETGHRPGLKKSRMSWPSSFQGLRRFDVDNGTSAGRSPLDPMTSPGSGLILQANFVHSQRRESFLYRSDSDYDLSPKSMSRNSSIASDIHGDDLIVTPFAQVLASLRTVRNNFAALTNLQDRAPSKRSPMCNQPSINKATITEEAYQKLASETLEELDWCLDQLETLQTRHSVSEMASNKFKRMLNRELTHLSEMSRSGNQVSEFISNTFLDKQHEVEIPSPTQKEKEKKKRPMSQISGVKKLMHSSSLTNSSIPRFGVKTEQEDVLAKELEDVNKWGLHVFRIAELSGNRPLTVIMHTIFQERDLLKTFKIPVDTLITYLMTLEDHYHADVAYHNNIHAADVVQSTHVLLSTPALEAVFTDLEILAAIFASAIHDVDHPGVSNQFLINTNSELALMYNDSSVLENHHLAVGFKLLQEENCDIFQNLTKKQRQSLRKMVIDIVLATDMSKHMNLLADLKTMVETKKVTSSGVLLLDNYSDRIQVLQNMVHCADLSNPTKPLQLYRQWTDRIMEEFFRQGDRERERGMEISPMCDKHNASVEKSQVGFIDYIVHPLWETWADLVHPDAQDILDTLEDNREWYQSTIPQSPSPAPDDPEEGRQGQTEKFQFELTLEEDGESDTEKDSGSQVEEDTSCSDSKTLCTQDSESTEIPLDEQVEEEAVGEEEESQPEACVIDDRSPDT
human PDE4B isozyme, sequence (Q07343 whole entry): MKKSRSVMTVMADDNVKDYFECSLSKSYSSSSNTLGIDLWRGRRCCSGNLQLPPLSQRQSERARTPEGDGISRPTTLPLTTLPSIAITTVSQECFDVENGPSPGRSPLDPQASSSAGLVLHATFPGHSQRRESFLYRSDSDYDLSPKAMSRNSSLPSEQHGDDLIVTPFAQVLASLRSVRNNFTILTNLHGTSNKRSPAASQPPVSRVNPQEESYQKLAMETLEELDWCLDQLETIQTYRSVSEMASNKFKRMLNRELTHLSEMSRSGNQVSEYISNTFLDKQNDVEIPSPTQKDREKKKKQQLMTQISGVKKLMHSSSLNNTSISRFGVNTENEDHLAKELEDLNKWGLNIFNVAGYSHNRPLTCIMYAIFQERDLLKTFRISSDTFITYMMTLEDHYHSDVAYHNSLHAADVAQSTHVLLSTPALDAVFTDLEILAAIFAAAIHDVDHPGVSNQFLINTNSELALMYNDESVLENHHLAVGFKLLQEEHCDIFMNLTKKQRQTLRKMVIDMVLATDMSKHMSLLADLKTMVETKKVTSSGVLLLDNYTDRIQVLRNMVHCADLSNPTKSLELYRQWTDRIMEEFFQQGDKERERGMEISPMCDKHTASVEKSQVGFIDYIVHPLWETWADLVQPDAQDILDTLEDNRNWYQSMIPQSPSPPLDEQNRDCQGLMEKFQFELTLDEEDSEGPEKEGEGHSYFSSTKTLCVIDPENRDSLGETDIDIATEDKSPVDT

A word on the IC50: it is the point on the concentration scale where inhibition reaches its midpoint. As to `Nc1nc2c(-c3cccc([N+](=O)[O-])c3)cc(Cc3ccc(F)cc3)cc2s1` [BA-01, 6-(4-fluorobenzyl)-4-(3-nitrophenyl)-benzothiazol-2-yl amine], the IC50 in assay [1] and in assay [2] was less than 5 µM in each case.
Take `Nc1nc2c(-c3cccc([N+](=O)[O-])c3)cc(Cn3ccnc3)cc2s1` [BA-02, 6-imidazol-1-ylmethyl-4-(3-nitro-phenyl)-benzothiazol-2-ylamine]: the concentration for half-maximal inhibition (IC50) in assay [1] and in assay [2] was less than 5 µM throughout.
Take `Nc1nc2c(-c3ccc4nonc4c3)cc(Cc3ccc(F)cc3)cc2s1` [BA-03, 4-Benzol[1,2,5]oxadiazol-5-yl-6-(4-fluoro-benzyl)-benzothiazol-2-yl amine]: the IC50 in assay [1] and in assay [2] was less than 5 µM in each case.
As to `Nc1nc2c(-c3ccc4c(c3)OCO4)cc(Cc3ccc(F)cc3)cc2s1` [BA-04, 4-Benzo[1,3]dioxol-5-yl-6-(4-fluoro-benzyl)-benzothiazol-2-ylamine], the IC50 in assay [1] and in assay [2] was less than 5 µM throughout.
Take `Nc1nc2c(-c3ccc4c(c3)OCO4)cc(C(O)c3ccc(F)cc3)cc2s1` (stereo not drawn) [BA-05, (2-Amino-4-benzo[1,3]dioxol-5-yl-benzothiazol-6-yl)-(4-fluoro-phenyl)-methanol]: the concentration for half-maximal inhibition (IC50) in assay [1] and in assay [2] was less than 5 µM each time.
As for `Cn1nccc1C(O)c1cc(-c2ccc3c(c2)OCO3)c2nc(N)sc2c1` (stereo not drawn) [BA-06, (2-Amino-4-benzo[1,3]dioxol-5-yl-benzothiazol-6-yl)-(2-methyl-2H-pyrazol-3-yl)-methanol], the IC50 in assay [1] and in assay [2] was less than 5 µM in each case.
For `Nc1nc2c(-c3cccc(C(F)(F)F)c3)cc(Cc3ccc(F)cc3)cc2s1` [BA-07, 6-(4-Fluoro-benzyl)-4-(3-trifluoromethyl-phenyl)-benzothiazol-2-ylamine], the IC50 in assay [1] and in assay [2] was less than 5 µM each time.
With `Cn1nccc1Cc1cc(-c2ccc3c(c2)OCO3)c2nc(N)sc2c1` [BA-08, 4-Benzo[1,3]dioxol-5-yl-6-(2-methyl-2H-pyrazol-3-ylmethyl)-benzothiazol-2-ylamine], the IC50 in assay [1] and in assay [2] was less than 5 µM throughout.
Consider `Nc1nc2c(-c3ccc4c(c3)OCO4)cc(Cn3cccn3)cc2s1` [BA-09, 4-Benzo[1,3]dioxol-5-yl-6-pyrazol-1-ylmethyl-benzothiazol-2-ylamine], for which the IC50 in assay [1] and in assay [2] was less than 5 µM each time.
For `Nc1nc2c(-c3cccc([N+](=O)[O-])c3)cc(Cn3cccn3)cc2s1` [BA-10, 4-(3-Nitro-phenyl)-6-pyrazol-1-ylmethyl-benzothiazol-2-ylamine], the IC50 in assay [1] and in assay [2] was less than 5 µM throughout.
As to `Nc1nc2c(-c3ccc4c(c3)OCO4)nc(Cc3ccc(F)cc3)nc2s1` [BA-11, 7-Benzo[1,3]dioxol-5-yl-5-(4-fluorobenzyl)-thiazolo[5,4-d]pyrimidin-2-ylamine], the IC50 in assay [1] and in assay [2] was less than 5 µM in each case.
In the case of `CC(=O)c1cccc(-c2cc(Cn3cccn3)cc3sc(N)nc23)c1` [BA-12, 1-[3-(2-Amino-6-pyrazol-1-ylmethyl-benzothiazol-4-yl)-phenyl]-ethanone], the IC50 in assay [1] and in assay [2] was less than 5 µM each time.
For the molecule `CN1CCN(Cc2cc3scnc3c(-c3cccc(Cl)c3)c2F)CC1` [BA-50, 4-(3-Chloro-phenyl)-5-fluoro-6-(4-methyl-piperazin-1-ylmethyl)-benzothiazole], the IC50 in assay [2] was less than 5 µM.
As to `Fc1c(Cc2ccc(N3CCCC3)nc2)cc2scnc2c1-c1cccc(Cl)c1` [BA-57, 4-(3-chloro-phenyl)-5-fluoro-6-(6-pyrrolidin-1-yl-pyridin-3-ylmethyl)-benzothiazole], the IC50 in assay [2] is less than 5 µM.
Same read-out and setting: then `Cc1nc2c(-c3cccc(Cl)c3)cc(Cc3ccc(N)nc3)cc2s1` [BA-66, 5-[4-(3-chloro-phenyl)-2-methyl-benzothiazol-6-ylmethyl]-pyridin-2-ylamine], with less than 5 µM.
